Source: US4555572A, “Pyrazolo[3,4,5-kl]acridine compositions and methods for their production and use” (Warner-Lambert Company, priority 1984, dated 1985)
Counter-ions that a name gives are not always drawn. Like-named read-outs stand apart in the source and are kept apart here.

Tests used:
HCT-8 cells = assay: in vitro proliferating human colon adenocarcinoma (HCA) cell screen, HCT-8; assay type: cell-based
Summary of the method: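 HCT-8 colon adenocarcinoma cells seeded in RPMI 1640 + 10% FCS, grown 48 h, then exposed to compounds for 60-65 h at 37 °C, 5% CO2. Nuclei counted by Coulter counter after lysis; ID50 is the molar concentration giving 50% growth inhibition.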

[1] = system: lymphocytic leukemia P388; assay: in vivo lymphocytic leukemia P388 test; design: species or system CD2 F1 mice; conditions: Mus musculus, P388, ip, 120 h
Summary of the method: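 CD2 F1 mice (6–7 per group) inoculated i.p. with P388 ascitic cells; compound dosed i.p. once daily for 5 consecutive days after inoculation. Survival followed 30 days; efficacy as treated/control survival time ×100 (≥125 criterion); "toxic" if all animals died within 4 days of first dose.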

Streptococcus faecalis = assay: in vitro antibacterial/antifungal (ABF) agar-disk diffusion assay; assay type: cell-based; conditions: Enterococcus faecalis, read-out: ABF zone diameter S. faecalis; for zone of inhibition at 500 µg/mL: dose .5 mg/ml
Procedure: (§1) (b) Another test protocol is the in vitro antibacterial/antifungal (ABF) test. Compounds are tested for antimicrobial activity in an agar-disk diffusion assay, a standard microbiological technique for testing antibiotics. After incubation of each culture with a test compound, a zone of inhibition is determined. The zone diameter (mm) of active compounds ranges from a minimum of 14 mm to as high as 60 mm, with a greater diameter reflecting higher activity. For convenience, values are reported for (Alcaligenes viscolactis, Sarcina lutea, Branhamella catarrhalis, Bacillus subtilis, and Streptococcus faecalis.

Alcaligenes viscolactis [2] = assay: as above; assay type: cell-based; conditions: dose .1 mg/ml, read-out: ABF zone diameter A. viscol.
Procedure: as §1

Bacillus subtilis = assay: as above; assay type: cell-based; conditions: for zone of inhibition at 100 µg/mL: dose .1 mg/ml
Procedure: as §1

Branhamella catarrhalis [3] = assay: as above; assay type: cell-based; conditions: Moraxella catarrhalis, read-out: ABF zone diameter B. catarrh.; for zone of inhibition at 100 µg/mL: dose .1 mg/ml
Procedure: as §1

Sarcina lutea = assay: as above; assay type: cell-based; conditions: Micrococcus luteus, read-out: ABF zone diameter S. lutea; for zone of inhibition at 500 µg/mL: dose .5 mg/ml
Procedure: as §1

Streptococcus pneumoniae = assay: in vitro antibacterial (ABMF) microdilution susceptibility test; assay type: cell-based; conditions: read-out: ABMF Test M.I.C. S. pneu.
Summary of the method: (§2)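 Standard microdilution susceptibility in Mueller-Hinton broth: inoculated wells contain test compound at 1000, 333, 111, 37, 12, 4, 1.4 and 0.46 μg/mL.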

Escherichia coli = assay: as above; assay type: cell-based; conditions: read-out: ABMF Test M.I.C. E. coli
Summary of the method: as §2

Bacillus cereus = assay: as above; assay type: cell-based; conditions: read-out: ABMF Test M.I.C. B. cere.
Summary of the method: as §2

Alcaligenes viscolactis [4] = assay: as above; assay type: cell-based; conditions: read-out: ABMF Test M.I.C. A. visc.
Summary of the method: as §2

Branhamella catarrhalis [5] = assay: as above; assay type: cell-based; conditions: Moraxella catarrhalis, read-out: ABMF Test M.I.C. B. cata.
Summary of the method: as §2

L1210 cells = assay: PDC test, L1210 cell growth; assay type: cell-based, murine; conditions: Mus musculus, read-out: PDC ID50
Procedure: (c) Another test protocol is the PDC test. L1210 cells, a murine leukemia cell line, were grown in RPMI 1640 supplemented with 10% fetal bovine serum and genamicin (50 μg/ml). Drug dilutions were prepared in the appropriate solvent and 20 μl of each dilution were added to 24-well Linbro tissue culture plates followed by the addition of 2.0 ml of cell suspension containing 3×10^4 cells per ml. Solvent and medium controls were included in each test. After incubation at 37° C. for three days in 5% CO2 in air, the contents of each well were removed and the cells counted in a ZBI Coulter counter. Per cent growth was calculated relative to the controls and the levels of drug activity were expressed as ID50 in terms of molarity (M).

[6] = 12.5 mg/kg, intraperitoneally once daily for five days, read-out: P388 in vivo T/C × 100
[7] = 25 mg/kg, intraperitoneally once daily for five days, read-out: P388 in vivo T/C × 100
[8] = Bacillus subtilis, read-out: ABF zone diameter B. subtil.
[9] = 3.12 mg/kg, intraperitoneally once daily for five days, read-out: P388 in vivo T/C × 100
[10] = 6.25 mg/kg, intraperitoneally once daily for five days, read-out: P388 in vivo T/C × 100
[11] = 50 mg/kg, intraperitoneally once daily for five days, read-out: P388 in vivo T/C × 100
[12] = Mueller-Hinton broth, 37° C., 16-24 hours
[13] = HCT-8 cells, 60 to 65 hours, ED50, read-out: HCA ED50 Avg.
[14] = read-out: P388 in vivo T/C × 100, 6.25 mg/kg, intraperitoneally once daily for five days
[15] = read-out: P388 in vivo T/C × 100, 12.5 mg/kg, intraperitoneally once daily for five days
[16] = read-out: P388 in vivo T/C × 100, 25 mg/kg, intraperitoneally once daily for five days
[17] = HCT-8, read-out: HCA in vitro ID50 avg.

| Compound | response vs control in vivo at 12.5 mg/kg [1, 6] [%] | response vs control in vivo at 25 mg/kg [1, 7] [%] | zone of inhibition at 500 µg/mL (Streptococcus faecalis) [mm] | zone of inhibition at 100 µg/mL (Alcaligenes viscolactis [2]) [mm] | zone of inhibition at 100 µg/mL (Bacillus subtilis; [8]) [mm] | zone of inhibition at 100 µg/mL (Branhamella catarrhalis [3]) [mm] | response vs control in vivo at 6.25 mg/kg [1, 10] [%] | response vs control in vivo at 50 mg/kg [1, 11] [%] | MIC (Streptococcus pneumoniae) [µg/mL] | MIC (Escherichia coli) [µg/mL] | MIC (Bacillus cereus) [µg/mL] | MIC (Alcaligenes viscolactis [4]) [µg/mL] | MIC (Branhamella catarrhalis [5]) [µg/mL] | IC50 (L1210 cells; L1210, 72 h) [µM] | response vs control in vivo at 6.25 mg/kg [1, 14] [%] | response vs control in vivo at 12.5 mg/kg [1, 15] [%] | further results |
| --- | --- | --- | --- | --- | --- | --- | --- | --- | --- | --- | --- | --- | --- | --- | --- | --- | --- |
| CCN(CC)CCn1nc2c3c(c([N+](=O)[O-])ccc31)N(C)c1ccccc1-2 [Example 2, N,N-Diethyl-6-methyl-5-nitropyrazolo[3,4,5-kl]acridine-2(6H)-ethanamine, methanesulfonate] | 126 | 184 | 16 | 20 | 18 | 17 | – | – | – | – | – | – | – | – | – | – | IC50 (HCT-8 cells; HCT-8 cells, 60 to 65 hours, molar concentration for 50% inhibition of growth, read-out: HCA in vitro ID50 avg.): 1 µM |
| O=[N+]([O-])c1ccc2c3c(nn2CCNCCO)-c2ccccc2Nc13 [Example 3, 2-[[2-(5-Nitropyrazolo[3,4,5-kl[acridin-2(6H)-yl)ethyl]amino]ethanol, monohydrochloride] | 158 | 185 | 15 | 21 | 18 | – | 132 | – | – | – | – | – | – | – | – | – | response vs control in vivo at 3.12 mg/kg [1, 9]: 122%; zone of inhibition at 500 µg/mL (Sarcina lutea): 14 mm; zone of inhibition at 500 µg/mL (Branhamella catarrhalis [3]; dose .5 mg/ml): 25 mm |
| CN1c2ccccc2-c2nn(CCNCCO)c3ccc([N+](=O)[O-])c1c23 [Example 4, 2-[[2-[6-Methyl-5-nitropyrazolo[3,4,5-kl-acridin-2-(6H)-yl]ethyl]amino]ethanol, methanesulfonate] | – | 120 | 18 | 19 | 20 | 16 | – | 180 | – | – | – | – | – | – | – | – | zone of inhibition at 500 µg/mL (Sarcina lutea): 19 mm |
| COc1ccc2c(c1)-c1nn(CCNCCO)c3ccc([N+](=O)[O-])c(c13)N2 [Example 7, 2-[[2-(9-Methoxy-5-nitropyrazolo[3,4,5-kl]-acridin-2(6H)yl)ethyl]aminoethanol, monohydrochloride] | 138 | 149 | – | – | – | 14 | 138 | 163 | – | – | – | – | – | – | – | – | zone of inhibition at 1000 µg/mL (Sarcina lutea; dose 1 mg/ml): 14 mm; zone of inhibition at 1000 µg/mL (Streptococcus faecalis; dose 1 mg/ml): 14 mm; zone of inhibition at 500 µg/mL (Bacillus subtilis; Bacillus subtilis, dose .5 mg/ml, read-out: ABF zone diameter B. subtil.): 18 mm |
| CCN(CC)CCn1nc2ccc([N+](=O)[O-])c3c2c1-c1cc(OC)ccc1N3.CS(=O)(=O)O [Example 9, N,N-Diethyl-9-methoxy-5-nitropyrazolo[3,4,5-kl]acridine-1(6H)-ethanamine, monomethanesulfonate] | 120 | 135 | 18 | – | – | 16 | – | 167 | – | – | – | – | – | – | – | – | zone of inhibition at 100 µg/mL (Sarcina lutea; dose .1 mg/ml): 14 mm; ABF zone diameter B. subtil. (Bacillus subtilis; dose not given): 15 mm |
| CCOc1ccc2c(c1)-c1nn(CCN(C)C)c3ccc([N+](=O)[O-])c(c13)N2 [Example 37, 9-Ethoxy-N,N-dimethyl-5-nitropyrazolo[3,4,5-kl]acridine-2(6H)ethanamine, methanesulfonate (4:5)] | 234 | – | – | – | – | – | 191 | – | – | – | – | – | – | – | – | – | MIC (Streptococcus pneumoniae; [12]): < 0.46 µg/mL; MIC (Escherichia coli; [12]): < 0.46 µg/mL; MIC (Bacillus cereus; [12]): 4.1 µg/mL; MIC (Alcaligenes viscolactis [4]; [12]): < 0.46 µg/mL; MIC (Branhamella catarrhalis [5]; [12]): 1.4 µg/mL; IC50 (L1210 cells; 72 h, L1210 cells, three days): 0.27 µM; IC50 (HCT-8 cells; [13]): 0.025 µM; response vs control in vivo at 3.12 mg/kg [1, 9]: 150% |
| CCOc1ccc2c(c1)-c1nn(CCNCCO)c3ccc([N+](=O)[O-])c(c13)N2 [Example 40, 2-[[2-(9-Ethoxy-5-nitropyrazolo[3,4,5-kl]acridin-2(6H)-yl)ethyl]amino]ethanol, monohydrochloride, hydrate (4:1)] | 156 | 169 | – | – | – | – | 134 | 195 | – | – | – | – | – | – | – | – | MIC (Streptococcus pneumoniae; [12]): < 0.46 µg/mL; MIC (Escherichia coli; [12]): 4.1 µg/mL; MIC (Bacillus cereus; [12]): < 0.46 µg/mL; MIC (Alcaligenes viscolactis [4]; [12]): < 0.46 µg/mL; MIC (Branhamella catarrhalis [5]; [12]): 4.1 µg/mL; IC50 (L1210 cells; 72 h, L1210 cells, three days): 0.32 µM; IC50 (HCT-8 cells; [13]): 0.082 µM |
| COc1ccc2c(c1)-c1nn(CCCN(C)C)c3ccc([N+](=O)[O-])c(c13)N2 [Example 45, 9-Methoxy-N,N-dimethyl-5-nitropyrazolo[3,4,5-kl]acridine-2(6H)-propanamine,methanesulfonate] | – | – | – | – | – | – | – | – | < 0.46 | 12.3 | 1.4 | < 0.46 | 1.4 | 0.42 | 189 | 227 | IC50 (HCT-8 cells; HCT-8, read-out: HCA ED50 Avg.): 0.14 µM; response vs control in vivo at 25 mg/kg [1, 16]: 261% |
| CCN(CC)CCn1nc2c3c(c([N+](=O)[O-])cc([N+](=O)[O-])c31)Nc1ccc(OC)cc1-2 [Example 50, N,N-Diethyl-9-methoxy-3,5-dinitropyrazolo[3,4,5-kl]acridine-2(6H)-ethanamine, methanesulfonate (1:1), hydrate] | – | – | – | – | – | – | – | – | < 0.46 | < 0.46 | 4.1 | < 0.46 | < 0.46 | 0.4 | 160 | 166 | IC50 (HCT-8 cells; [17]): 0.066 µM; response vs control in vivo at 25 mg/kg [1, 16]: 169%; response vs control in vivo at 50 mg/kg ([1]; read-out: P388 in vivo T/C × 100, 50 mg/kg, intraperitoneally once daily for five days): 226% |
| COc1ccc2c(c1)-c1nn(CCN(C)C)c3c([N+](=O)[O-])cc([N+](=O)[O-])c(c13)N2 [Example 54, 9-Methoxy-N,N-dimethyl-3,5-dinitropyrazolo[3,4,5-kl]acridine-2(6H)-ethanamine, methanesulfonate (1:1), hydrate] | – | – | – | – | – | – | – | – | 0.46 | 0.46 | 0.46 | 0.46 | 0.46 | 0.22 | 169 | 236 | IC50 (HCT-8 cells; [17]): 0.055 µM; response vs control in vivo at 1.56 mg/kg ([1]; read-out: P388 in vivo T/C × 100, 1.56 mg/kg, intraperitoneally once daily for five days): 132%; response vs control in vivo at 3.12 mg/kg ([1]; read-out: P388 in vivo T/C × 100, 3.12 mg/kg, intraperitoneally once daily for five days): 137% |
